From patent publication US20220034903A1, “Therapies That Target Autoimmunity For Treating Glaucoma And Optic Neuropathy” (The Schepens Eye Research Institute, Inc., priority 2011, published 2022)

Key:
Format in all cases: in vivo
RGCs [1] = assay: Optic nerve crush injury, RGC loss at 4 weeks; conditions: wild-type mice, rapamycin i.p. 100 μg/day, 4 weeks post-optic nerve crush (87% loss without treatment)
Description: FIG. 9 is a bar chart showing that suppressing autoimmunity using immuno-deficient mice or immune suppressor promotes RGC survival after optic neuropathy. Optic never crush injury was performed in wild-type (wt) mice that received daily injection of PBS (wt) or rapamycin (Rapam) as well as in Rag1^−/− (Rag1) and TCRβ^−/− (TCRβ) mice. Animals were sacrificed 4 weeks post operation, and percentage of RGC loss was assessed. (*P<0.01 as compared to the normal subject group).
(§1) A standard procedure for quantification of RGC axon loss in optic nerve sections was used, e.g., as described in Cho et al., J Cell Sci 118, 863-872. (2005). Axonal density was calculated, and the percentage of axon loss was determined by comparing with the axon density calculated from corresponding regions of the contralateral control eyes. RGC loss was assessed quantitatively in retinal flat-mounts that were incubated with a primary antibody against a RGC specific marker, β-III-tubulin (Fournier, A. E. & McKerracher, L. Biochem Cell Biol 73, 659-664 (1995); Fitzgerald et al., Investigative ophthalmology & visual science (2009); Tuj1; Sigma-Aldrich, St.), followed by a Alexa Fluor 488-conjugated secondary antibody. The degree of RGC loss was assessed as previously described (Chen et al., Investigative ophthalmology & visual science 52, 36-44 (2011)). […]

retinal activity = assay: Electroretinogram a and b wave after AION; conditions: mice with AION, vs IgG isotype-injected ischemia group, different intensity of light stimulation
RGCs [2] = assay: AION (ischemic optic neuropathy), RGC loss in retinal flat-mounts; conditions: WT mice, injected into the vitreous at 3, 7 and 14 days post injury, sacrificed 4 weeks after AION, vs IgG isotype
Description: OKT3 antibody was injected into the vitreous of ischemia WT mice at 3, 7, and 14 days post injury. Injection of IgG isotype served as the control. All of the recipient mice were sacrificed at 4 weeks after AION.
as §1, with “(2011)). The total numbers and densities of RGCs were calculated, and the percentage of RGC loss was determined by comparing RGC number with that obtained from the corresponding regions of the contralateral control eyes.” for “(2011)).”

Row | Compound | RGC loss (RGCs [1]) [%] | retinal function (electroretinogram a and b wave) after AION (retinal activity) | effect on RGC loss after AION (RGCs [2])
1 | CO[C@H]1C[C@@H]2CC[C@@H](C)[C@@](O)(O2)C(=O)C(=O)N2CCCC[C@H]2C(=O)O[C@H]([C@H](C)C[C@@H]2CC[C@@H](O)[C@H](OC)C2)CC(=O)[C@H](C)/C=C(\C)[C@@H](O)[C@@H](OC)C(=O)[C@H](C)C[C@H](C)/C=C/C=C/C=C/1C [rapamycin] | 65 | – | –
2 | OKT3 antibody: monoclonal antibody targeted at the CD3 receptor on T cells; clinically approved immunosuppressant | – | functional rescue of retinal activity | neuroprotective effect
